From US20030105082A1, “Methods for improving the therapeutic response of humans having major depression and carrying the gene for apolipoprotein E4” (priority 2001, published 2003)

What was measured:
[1] = test system: patients 65 years of age and older with major depression; experiment: 8-week double-blind comparison of paroxetine and mirtazapine: Geriatric Depression Scale (GDS); assay type: in vivo, human; details: for GDS scores, ε4 carriers compared with noncarriers / GDS scores, ε4 carriers compared with those without ε4 / 50% reduction in GDS score (GDS 50% responders), ε4 carriers compared with those without ε4: day 14; for GDS scores, ε4 carriers compared with noncarriers: mirtazapine p=0.025; for GDS scores, ε4 carriers compared with those without ε4 / 50% reduction in GDS score (GDS 50% responders), ε4 carriers compared with those without ε4 / 50% reduction in GDS score, ε4 carriers compared with noncarriers: full cohort; for GDS scores, ε4 carriers compared with those without ε4: mirtazapine p=0.021; for 50% reduction in GDS score (GDS 50% responders), ε4 carriers compared with those without ε4: mirtazapine p=0.046; for 50% reduction in GDS score, ε4 carriers compared with noncarriers: mirtazapine p<0.005
Protocol: Geriatric Depression Scale (GDS) (Yesavage, J.A. et al., J. Psychiatr. Res. 17:37-49, 1983), a self-rating scale developed specifically for rating depression in the elderly. In the GDS, a lower rating signifies less depression. GDS 50% responders are defined as subjects with a decrease on a post-baseline assessment of at least 50% as compared to baseline.
(§1) All statistical analyses were performed using the SAS software package (available from SAS Institute). For clinical measures of depression (HDRS-21, HDRS-17, GDS, and CGI), analyses of covariance were performed with baseline values as the covariate, and apoE genotype ([…]4 allele carrier vs. non-carrier) and medication (mirtazapine, paroxetine) as the predictors. For remitter and responder analyses of clinical measures of depression, Cochran-Mantel-Haenszel statistics were used. For comparison of medication and genotype groups on baseline demographic measures, two-way analyses of variance were used.

[2] = test system: patients 65 years of age and older with major depression; experiment: 8-week double-blind comparison of paroxetine and mirtazapine: Hamilton Depression Rating Scale (HDRS-17, HDRS-21); assay type: in vivo, human; details: for HDRS-21 scores, ε4 carriers compared with those without ε4: treatment x genotype interaction p=0.033; for HDRS-17 scores, ε4 carriers compared with those without ε4: treatment x genotype interaction p=0.036; for antidepressant response / onset of action, mirtazapine vs paroxetine / early antidepressant response, ε4 carriers compared with non-ε4 carriers: early weeks of treatment, summary of the example
Excerpt: Hamilton Depression Rating Scale (HDRS; 17 and 21 item versions of a structured interview) (Hamilton, M., J. Neurol. Neurosurg. Psychiatr. 23:56-62, 1960; Hamilton, M., Br. J. Soc. Clin. Psychol. 6:278-296,1967). […] In other words, a lower rating in the HDRS scale signifies less depression. In contrast, HDRS remitters, which are those patients showing the least depression, are defined as subjects who have an HDRS-17 score of less than 7 at a post-baseline visit.
as §1

[3] = test system: patients 65 years of age and older with major depression; experiment: 8-week double-blind comparison of paroxetine and mirtazapine: Clinical Global Impression Scale (CGI); assay type: in vivo, human; details: day 14; for CGI scores, ε4 carriers compared with noncarriers: mirtazapine p=0.028; for CGI scores, ε4 carriers compared with those without ε4: treatment x genotype interaction p=0.029
Excerpt: Clinical Global Impression Scale (CGI) (Guy, W., ECDEU Assessment Manual for Psychopharmacology, DHEW Publication No. (ADM) 76-338, rev. 1976). The CGI scale is a global 7-point rating of the severity of the illness taking into account the preceding week (CGI-Severity) and a global 7-point rating of the clinical status of the subject since baseline (CGI-Change). A responder is defined as being “Much Improved” or “Very Much Improved”— having a CGI score of […] 2 according to CGI-Change. Thus, a higher CGI-Severity score corresponds to more severe depression whereas a higher CGI-Change score corresponds to lessened depression, or an improvement in alleviating the symptoms of depression.
as §1

[4] = 8-week comparison of paroxetine and mirtazapine: plasma drug concentrations by apoE genotype
Protocol: (§2) A multi-center, randomized, double-blind, 8-week comparison of paroxetine and mirtazapine was performed for 246 nondemented, cognitively intact patients 65 years of age and older with major depression. All patients were genotyped at the apoE locus as discussed further below.
(§3) After an initial evaluation period, the mirtazapine patients started with a 15 mg dose per day. After two weeks of treatment (Day 14), patients' dosages were raised to 30 mg per day. […] Subjects who rate “Much Improved” or “Very Much Improved” on the CGI Scale I continued on the same dose they were receiving during the previous week.
(§4) For paroxetine, the dosing system was the same, except that the starting dosage was 20 mg per day, raised to 30 mg per day, and to a maximum of 40 mg per day.
(§5) To screen patients for the gene, genomic DNA was extracted from EDTA-treated whole blood using the Puregene DNA extraction kit (available from Gentra Systems). ApoE genotypes were determined using restriction isotyping (restriction enzyme isoform genotyping) according to the protocol of Hixson and Vernier (J. Lipid Res. 31:545-548,1990), as set forth in Murphy, G.E. et al., Am. J. Psychiatr. 154:603-608, 1997. Genotypes were determined by two observers blind as to the clinical or neuropathological diagnosis.

[5] = test system: patients 65 years of age and older with major depression; experiment: 8-week double-blind comparison of paroxetine and mirtazapine: Mini Mental State Examination (MMSE), cognition; assay type: in vivo, human; details: for mean MMSE score, ε4 carriers compared with noncarriers: week 8, full cohort, paroxetine p=0.018
Protocol: as §2, §3, §4
Mini Mental State Examination (MMSE) (Folstein, M.F. et al., J. Psychiatr. Res. 12:189-198, 1975). This test represents a brief standardized method to grade cognitive mental status. The test assesses orientation, attention, immediate and short-term recall, language, and the ability to follow verbal and written commands. The lower the score, the lower the cognitive mental status.
as §1

[6] = 8-week comparison of paroxetine and mirtazapine: discontinuation due to adverse events by apoE genotype
Protocol: as §2, §3, §4, §5

[7] = day 14, patients carrying an apoE ε4 allele
[8] = day 14, patients with an apoE ε4 allele, remitter = HDRS-17 score less than 7
[9] = day 14, patients without an apoE ε4 allele
[10] = day 14, Caucasian patients, p=0.006

For `Fc1ccc([C@@H]2CCNC[C@H]2COc2ccc3c(c2)OCO3)cc1` [paroxetine], the “GDS scores, ε4 carriers compared with noncarriers” value ([1]; Caucasian patients) was “no effect”, the “GDS scores, ε4 carriers compared with those without ε4” value [1] was “no significant difference” and the “50% reduction in GDS score (GDS 50% responders), ε4 carriers compared with those without ε4” value [1] was “no difference”. For the same compound, the “effect of the ε4 genotype on the number of patients showing a 50% reduction in GDS” value ([1]; day 28, Caucasian patients) was “no significant effect”, the “50% reduction in GDS score, ε4 carriers compared with noncarriers” value ([1]; day 28) was “no effect of apoE genotype” and the “HDRS scores, ε4 carriers compared with noncarriers” value ([2]; day 14, Caucasian patients) was “less improvement”. For the same compound, the “HDRS-21 scores, ε4 carriers compared with those without ε4” value ([2]; day 14, full cohort) was “higher scores”, the “HDRS-17 scores, ε4 carriers compared with those without ε4” value ([2]; day 14, full cohort) was “higher scores” and the “HDRS-21 50% responders” value [2, 7] was “none”. For the same compound, the “patients showing a 50% decrease in HDRS-17 score over baseline (HDRS-17 50% responders)” value ([2]; day 14, patients with an apoE ε4 allele) was “none”, the HDRS-17 remitters [2, 8] was “none” and the “HDRS-21 50% responders” value [2, 9] was 23.3%. The “antidepressant response / onset of action, mirtazapine vs paroxetine” value [2] was “slower onset of anti-depressant action”, the “early antidepressant response, ε4 carriers compared with non-ε4 carriers” value [2] was “particularly slow to respond” and the “CGI scores, ε4 carriers compared with noncarriers” value ([3]; Caucasian patients) was “no differences”. The “CGI scores, ε4 carriers compared with those without ε4” value ([3]; full cohort) was “higher scores”, the “plasma drug concentrations, ε4 carriers vs non-ε4 carriers” value ([4]; Caucasian subjects) was “no differences” and the “plasma drug concentrations, ε4 carriers vs non-ε4 carriers” value ([4]; full cohort) was “no differences”. For the same compound, the “MMSE score, ε4 carriers compared with those without ε4” value ([5]; Caucasian subjects, trend, p=0.05) was “lower MMSE score”, the “mean MMSE score, ε4 carriers compared with noncarriers” value [5] was “significantly lower” and the “number of patients who discontinued due to adverse events, ε4 carriers vs noncarriers” value (“number … vs noncarriers” for short) ([6]; Caucasian subjects) was “no significant differences”. The “number … vs noncarriers” value ([6]; full cohort) was “no significant differences”.

With `CN1CCN2c3ncccc3Cc3ccccc3C2C1` (stereo not shown) [mirtazapine, 1,2,3,4,10,14b-hexahydro-2-methylpyrazino [2,1a]pyrido[2,3-c]benzazepine] the “GDS scores, ε4 carriers compared with noncarriers” value ([1]; Caucasian patients) was “significantly lower”, the “GDS scores, ε4 carriers compared with those without ε4” value [1] was “large decrease in GDS scores” and the “50% reduction in GDS score (GDS 50% responders), ε4 carriers compared with those without ε4” value [1] was “significantly more likely”. The “patients showing a 50% reduction in GDS score” value ([1]; day 28, Caucasian patients, noncarriers) was 16.9%, the “patients showing a 50% reduction in GDS score” value ([1]; day 28, Caucasian patients, ε4 carriers) was 41.7% and the “50% reduction in GDS score, ε4 carriers compared with noncarriers” value ([1]; day 28) was “significantly more”. For the same compound, the “improvement in HDRS-17 scores, mirtazapine-treated vs paroxetine-treated patients” value ([2]; day 7, full cohort) was “significantly greater improvement”, the “HDRS scores, ε4 carriers compared with noncarriers” value ([2]; day 14, Caucasian patients) was “greater improvement” and the “mean HDRS-17 scores, mirtazapine vs paroxetine” value [2, 10] was “significantly lower”. For the same compound, the “mean HDRS-21 scores, mirtazapine vs paroxetine” value [2, 10] was “significantly lower”, the “percentage of ε4 carriers responding to medication treatment, mirtazapine vs paroxetine” value ([2]; day 14, Caucasian subjects, each of 50% reduction in HDRS-17, HDRS-21, HDRS-17 remission, 50% reduction in GDS) was “greater” and the “improvement in HDRS-17 scores, mirtazapine-treated vs paroxetine-treated patients” value ([2]; day 14, full cohort) was “Significantly greater improvement”. For the same compound, the “improvement in HDRS-21 scores, mirtazapine-treated vs paroxetine-treated patients” value ([2]; day 14, full cohort) was “Significantly greater improvement”, the “HDRS-21 scores, ε4 carriers compared with those without ε4” value ([2]; day 14, full cohort) was “significantly lower scores” and the “HDRS-17 scores, ε4 carriers compared with those without ε4” value ([2]; day 14, full cohort) was “significantly lower scores”. The “HDRS-17 50% responders, ε4 carriers compared with those without ε4” value ([2]; day 14, p=0.049) was “significantly more”, the “HDRS-21 50% responders” value [2, 7] was 48% and the HDRS-17 remitters [2, 8] was 28%. For the same compound, the HDRS-17 remitters [2, 9] was 7.1%, the “HDRS-21 50% responders” value [2, 9] was 29.4% and the “antidepressant response / onset of action, mirtazapine vs paroxetine” value [2] was “higher rate of antidepressant response”. For the same compound, the “early antidepressant response, ε4 carriers compared with non-ε4 carriers” value [2] was “significantly stronger”, the “CGI scores, ε4 carriers compared with noncarriers” value ([3]; Caucasian patients) was “significantly better” and the “CGI scores, mirtazapine vs paroxetine treated subjects” value ([3]; Caucasian patients, p=0.037) was “significantly better”. The “improvement in CGI scores, mirtazapine-treated vs paroxetine-treated patients” value ([3]; full cohort) was “Significantly greater improvement”, the “CGI scores, ε4 carriers compared with those without ε4” value ([3]; full cohort) was “significantly lower scores” and the “plasma drug concentrations, ε4 carriers vs non-ε4 carriers” value ([4]; in vivo) was “no differences”. For the same compound, the “mean MMSE score, ε4 carriers compared with noncarriers” value [5] was “no effect”, the “number … vs noncarriers” value ([6]; full cohort) was “no significant differences” and the “number … vs noncarriers” value ([6]; in vivo) was “no significant differences”.
